Read-outs that look alike come from different tables or passages of the source.
What was measured:
Caco-2 cell lysates = experiment: Biological stability in Caco-2 cell lysates; assay type: in vitro ADME, human; details: for stability in HBSS at pH 6 (blank control) / stability in Caco-2 cell lysates / stability in inactive Caco-2 cell lysates: individual compound 100 µM; for stability in HBSS at pH 6 (blank control): HBSS pH 6, up to 24 h; for stability in Caco-2 cell lysates: active cell lysates, within 24 h; for stability in inactive Caco-2 cell lysates: inactive (heated) cell lysates
Method: Caco-2 cells were cultured in T75 flasks at a seeding density of 2 × 10^6 cells/flask for 12–15 days. The cell lysate was freshly prepared by washing the cells twice with ice-cold HBSS at pH 6 (12 mL). The cells were then collected by scraping and resuspending in ice-cold HBSS at pH 6 (7.5 mL/flask). The cell suspension was vortexed and sonicated in an ice water bath for 30 min to obtain the lysate, which was kept on ice until use, and its cellular protein concentration was determined using a BCA™ protein assay kit (Thermo Fisher Scientific, Rockford, IL, USA) with bovine serum albumin as a reference standard.
Many phenolic compounds were subject to sulfation and glucuronidation by Caco-2 cells at concentrations higher than 20 μM [16, 21, 43] and the metabolites of GA, MG and PGG could not be observed in Caco-2 transport experiment. Therefore, the concentration of the standard pure compounds used in this study was higher than that used in the chemical stability experiment. After preparing the cell lysate, the test compounds were prepared by dissolution in HBSS at pH 6 and then added to the lysates for a final concentration of 1.08 mg/mL protein to obtain final individual concentrations of 100 μM for GA, MG and PGG and 0.75 mg/mL for MSKE, which is equivalent to concentrations of 55.12 ± 4.57 µM GA, 7.56 ± 0.85 µM MG and 110.02 ± 17.52 µM PGG. The mixtures were then incubated in a water bath at 37 °C for 24 h, and samples (50 µL for standard compounds, and 200 µL for MSKE) were collected at 0, 4, 6 and 24 h. Each sample was then added to an ice-cold 50% methanol (150 µL for GA, MG and PGG, and 600 µL for MSKE) to stop the reaction, vortexed and centrifuged at 15,500 rpm for 15 min, and the supernatant was injected into the UPLC for analysis.
(§1) The chemical and biological stabilities of the phenolic compounds were expressed as the concentration of the analyte at different time points relative to the concentration of the same analyte at time zero multiplied by 100 (% recovery).

in vitro = in vitro ADME, rat; details: Sprague-Dawley, pH 6, rat fecal lysates, 24 h; for recovery at 24 h, 100 µg/mL: as principle in MSKE 100 µg/mL, relative to HBSS, read-out: relative recovery after incubation with the fecal lysates
Method: (§2) The rat fecal lysate was prepared according to the method of Niu et al. with slight modifications. Briefly, 3 g of feces was collected from SD rats (8–10 weeks, n = 6) were then washed with ice-cold 0.1 mM potassium phosphate buffer (KPi, 10 mL). After resuspension in ice-cold 0.1 mM KPi (20 mL), the feces were vortexed and sonicated in an ice water bath for 45 min. To obtain the fecal lysate, the mixture was centrifuged at 15,000 rpm at 4 °C for 30 min. The supernatant was collected and maintained at –80 °C until use. The protein concentration in the fecal lysate was determined using a BCA™ protein assay kit.
(§3) The prepared fecal lysate was thawed and diluted with ice-cold HBSS at pH 6 to obtain a final concentration of 0.5 mg/mL protein for each test. […] The mixtures were then incubated in water bath at 37 °C for 24 h. After samples (200 μL) were collected at each specific time point (0, 1, 2, 8, and 24 h), the reaction was stopped by adding ice-cold methanol (50 μL). The samples were then vortexed and centrifuged at 15,500 rpm for 15 min, and the supernatant was injected into the UPLC for analysis.
as §1

rat fecal lysates = experiment: in vitro; assay type: in vitro ADME; details: for recovery after incubation with inactive fecal lysates and HBSS at pH 6 / recovery after incubation with fecal lysates: as principle in MSKE 100 µg/mL; for recovery after incubation with fecal lysates / stability in inactive rat fecal lysates or HBSS at pH 6: 24 h
Method: as §2, §3, §1

Caco-2 monolayer = experiment: Caco-2 transepithelial transport experiment; assay type: in vitro ADME, human; details: 20 µM
Method: The transport experiment using Caco-2 monolayer was performed according to the criteria in our laboratory as previously reported with slight modification. Briefly, the cell monolayers were prepared by seeding 400,000 cells onto a polycarbonate insert, which has a surface area and pore size of 4.2 cm^2 and 3 μm, respectively (Nunc™, Thermo Fisher Scientific, Waltham, MA, USA). Cells were maintained in a humidified atmosphere at 37 °C (90% humidity and 5% CO2) and fed every other day. After 19 to 22 days post-seeding, the cell monolayers were used in the experiments. Before the experiment, the monolayers were quickly washed twice with pre-warmed HBSS at pH 7.4 (37 °C). The integrity of each monolayer was then verified by measuring the transepithelial electrical resistance (TEER) using a Millicell® ERS meter (Millipore, Bedford, MA, USA), and layers with TEER values less than 400 Ω/cm^2 relative to that of the blank insert were discarded. Then, the monolayers were incubated with the HBSS buffer at 37 °C for 1 h, and the incubation buffer was then aspirated. The test compounds were dissolved in HBSS at pH 6 to obtain final concentrations for the individual compounds (20 μM), mixture (20 μM) and MSKE (0.25 mg/mL), which were then loaded onto the A or B side (2.6 mL) as the donor side. A 2.6 mL aliquot of HBSS at pH 6 without the test compounds was loaded into the other side as the receiver side. After incubation at 37 °C, 0.6 mL of sample was collected from the receiver side at indicated times (60, 120, 180 and 240 min), and the same volume of receiver medium was replaced after each sampling. At the end of the experiment, the cells were washed twice with ice-cold HBSS at pH 6. The cells in each well were then collected and resuspended in 600 μL of HBSS at pH 6, and sonicated in an ice water bath at an output of 9 W for 30 min to obtain the cell lysates. The lysate was divided into the following aliquots: (1) 20 μL for quantitative protein assessment using a BCA™ protein assay kit and (2) 580 μL for quantitative test compounds. The samples collected from the transport study were stored at −20 °C until the UPLC or LC–MS/MS analysis. The experiments were performed in triplicate.
The apparent permeability coefficient (Papp, cm/s) of each compound was calculated according to the following equation (Equation (1)): (1) Papp= dQ/dt×1/AC0 where dQ/dt is the compound permeation rate (nmol/s), A denotes the membrane surface area, and C0 is the initial concentration on the donor side (µM). The efflux ratio was calculated according to the following equation (Equation (2)): (2) Efflux ratio= Papp BA(mean)/Papp AB(mean) where Papp BA (mean) and Papp AB (mean) are the average apparent permeability coefficients of each compound from side B to side A, and from side A to side B, respectively.

[1] = cited from earlier work

relative recoveries after incubation with Caco-2 cell lysates (Caco-2 cell lysates; as principle in MSKE 0.75 mg/mL, 24 h, relative to HBSS) | recovery at 24 h, 100 µg/mL (in vitro; rat fecal lysate) [%] | recovery at 24 h, 10 µM (in vitro; rat fecal lysate, mixture of GA, MG and PGG 10 µM each, read-out: recovery after incubation with the fecal lysates) [%] | time to complete degradation in fecal lysates (rat fecal lysates; individual compound 10 µM, rat fecal lysates) [h] | stability in inactive fecal lysates (rat fecal lysates; mixture of GA, MG and PGG 10 µM each, PGG after 8 h) | SMILES | stability in HBSS at pH 6 (blank control) (Caco-2 cell lysates) | stability in Caco-2 cell lysates (Caco-2 cell lysates) | stability in inactive Caco-2 cell lysates (Caco-2 cell lysates; 24 h) | recovery at 24 h, 100 µg/mL (in vitro) [%] | maximum GA concentration increase after hydrolysis of PGG (rat fecal lysates; PGG 10 µM incubated with rat fecal lysates) | recovery after incubation with inactive fecal lysates and HBSS at pH 6 (rat fecal lysates) | recovery after incubation with fecal lysates (rat fecal lysates; rat fecal lysates) | stability in inactive rat fecal lysates or HBSS at pH 6 (rat fecal lysates; individual compound 10 µM) | accumulation in the cells (cellular uptake) (Caco-2 monolayer; after individual bi-directional transport across Caco-2 monolayer) | Papp B to A (Caco-2 monolayer; human, Caco-2, 240 min, pH 6) | Cmax ([1]; rat, in vivo, po, 100 umol/kg) [nM] | elimination t1/2 ([1]; rat, in vivo, po, 100 umol/kg) [min] | Tmax ([1]; rats, p.o., GA as pure compound or component of rhubarb and grape seed extract, plasma)
– | – | – | – | – | O=C(O)c1cc(O)c(O)c(O)c1 [GA, Gallic acid] | stable | degraded | stable | 167 | approximately 4 fold | increased recoveries | increased recoveries | not significantly different from the initial concentrations | could not be detected | 1.87 ± 0.47 ×10^−6 cm/s | 710 | 24 | approximately 60 min
decreased relative recoveries | 54.7 | 55.4 | ≤ 8 | good stabilities | COC(=O)c1cc(O)c(O)c(O)c1 [MG, methyl gallate] | stable | degraded | stable | – | – | increased recoveries | increased recoveries | stable | – | – | – | – | –
